Results taken from the NIST ThermoML archive (doi:10.1016/j.fluid.2014.10.002).
“And” between values parts separate entries of the source, which are not always exact repeats. Equal entries are not always repeated.

Settings: Liquid

CCCCC(CC)COC(=O)c1ccc(C(=O)OCC(CC)CCCC)c(C(=O)OCC(CC)CCCC)c1 (stereo unspecified) [tris(2-ethylhexyl) trimellitate]
Settings | viscosity
313.17 K, 20060 kPa, Vibrating wire viscometry | 132 mPa·s
313.17 K, 29940 kPa, Vibrating wire viscometry | 159.5 mPa·s
313.18 K, 101.33 kPa, Capillary tube (Ostwald / Ubbelohde) method | 86.37 mPa·s
323.1 K, 101.33 kPa, Capillary tube (Ostwald / Ubbelohde) method | 52.41 mPa·s
328.06 K, 101.33 kPa, Capillary tube (Ostwald / Ubbelohde) method | 41.71 mPa·s
328.15 K, 2490 kPa, Vibrating wire viscometry | 43.18 mPa·s
328.15 K, 2520 kPa, Vibrating wire viscometry | 43.29 mPa·s
328.15 K, 5120 kPa, Vibrating wire viscometry | 45.81 mPa·s
328.15 K, 7540 kPa, Vibrating wire viscometry | 47.59 mPa·s
328.15 K, 7550 kPa, Vibrating wire viscometry | 47.68 mPa·s
328.15 K, 7560 kPa, Vibrating wire viscometry | 47.66 mPa·s
328.15 K, 10410 kPa, Vibrating wire viscometry | 50.91 mPa·s
328.15 K, 10430 kPa, Vibrating wire viscometry | 50.81 mPa·s
328.15 K, 15140 kPa, Vibrating wire viscometry | 55.66 mPa·s
328.15 K, 20020 kPa, Vibrating wire viscometry | 60.75 mPa·s
328.15 K, 20040 kPa, Vibrating wire viscometry | 60.75 mPa·s and 60.87 mPa·s
328.15 K, 30400 kPa, Vibrating wire viscometry | 74.44 mPa·s
328.15 K, 30410 kPa, Vibrating wire viscometry | 74.65 mPa·s
328.15 K, 30420 kPa, Vibrating wire viscometry | 74.52 mPa·s
328.15 K, 40610 kPa, Vibrating wire viscometry | 89.47 mPa·s
328.15 K, 50030 kPa, Vibrating wire viscometry | 105.8 mPa·s and 105.5 mPa·s and 105.9 mPa·s
328.15 K, 50040 kPa, Vibrating wire viscometry | 105.5 mPa·s and 105.7 mPa·s
328.15 K, 50050 kPa, Vibrating wire viscometry | 105.7 mPa·s
328.15 K, 50070 kPa, Vibrating wire viscometry | 105.9 mPa·s
328.15 K, 50080 kPa, Vibrating wire viscometry | 105.8 mPa·s
328.15 K, 65530 kPa, Vibrating wire viscometry | 139.6 mPa·s
328.16 K, 1000 kPa, Vibrating wire viscometry | 41.66 mPa·s
328.16 K, 1030 kPa, Vibrating wire viscometry | 41.61 mPa·s and 41.82 mPa·s
328.16 K, 1050 kPa, Vibrating wire viscometry | 41.76 mPa·s
328.16 K, 2510 kPa, Vibrating wire viscometry | 43.2 mPa·s
328.16 K, 2520 kPa, Vibrating wire viscometry | 43.23 mPa·s
328.16 K, 2530 kPa, Vibrating wire viscometry | 43.31 mPa·s
328.16 K, 5100 kPa, Vibrating wire viscometry | 45.73 mPa·s and 45.69 mPa·s
328.16 K, 5130 kPa, Vibrating wire viscometry | 45.73 mPa·s and 45.72 mPa·s
328.16 K, 5140 kPa, Vibrating wire viscometry | 45.67 mPa·s
328.16 K, 7580 kPa, Vibrating wire viscometry | 47.76 mPa·s
328.16 K, 10390 kPa, Vibrating wire viscometry | 50.78 mPa·s
328.16 K, 10400 kPa, Vibrating wire viscometry | 50.84 mPa·s and 50.82 mPa·s
328.16 K, 10410 kPa, Vibrating wire viscometry | 50.74 mPa·s
328.16 K, 15100 kPa, Vibrating wire viscometry | 55.71 mPa·s
328.16 K, 15110 kPa, Vibrating wire viscometry | 55.52 mPa·s
328.16 K, 15130 kPa, Vibrating wire viscometry | 55.62 mPa·s
328.16 K, 20020 kPa, Vibrating wire viscometry | 60.83 mPa·s
328.16 K, 20030 kPa, Vibrating wire viscometry | 60.93 mPa·s
328.16 K, 30420 kPa, Vibrating wire viscometry | 74.4 mPa·s
328.16 K, 40570 kPa, Vibrating wire viscometry | 89.15 mPa·s
328.16 K, 40590 kPa, Vibrating wire viscometry | 89.1 mPa·s
328.16 K, 40620 kPa, Vibrating wire viscometry | 89.25 mPa·s
328.16 K, 50040 kPa, Vibrating wire viscometry | 105.5 mPa·s
328.16 K, 65490 kPa, Vibrating wire viscometry | 139.6 mPa·s
343.14 K, 1080 kPa, Vibrating wire viscometry | 22.75 mPa·s
343.14 K, 10140 kPa, Vibrating wire viscometry | 27.1 mPa·s
343.14 K, 10150 kPa, Vibrating wire viscometry | 27.11 mPa·s and 27.07 mPa·s
343.14 K, 19890 kPa, Vibrating wire viscometry | 32.41 mPa·s
343.14 K, 19900 kPa, Vibrating wire viscometry | 32.35 mPa·s and 32.43 mPa·s
343.14 K, 19910 kPa, Vibrating wire viscometry | 32.45 mPa·s
343.14 K, 19920 kPa, Vibrating wire viscometry | 32.38 mPa·s
343.14 K, 19930 kPa, Vibrating wire viscometry | 32.41 mPa·s
343.14 K, 30240 kPa, Vibrating wire viscometry | 38.59 mPa·s
343.14 K, 30250 kPa, Vibrating wire viscometry | 38.67 mPa·s and 38.63 mPa·s and 38.6 mPa·s
343.14 K, 30260 kPa, Vibrating wire viscometry | 38.59 mPa·s
343.14 K, 40260 kPa, Vibrating wire viscometry | 45.94 mPa·s
343.14 K, 40270 kPa, Vibrating wire viscometry | 45.89 mPa·s and 45.83 mPa·s
343.14 K, 40280 kPa, Vibrating wire viscometry | 45.91 mPa·s
343.14 K, 49840 kPa, Vibrating wire viscometry | 53.72 mPa·s and 53.82 mPa·s
343.14 K, 49860 kPa, Vibrating wire viscometry | 53.79 mPa·s
